Experimental data taken from US20010002252A1, “TOOTH WHITENING PREPARATIONS” (priority 1994, published 2001).

Assay: Tooth whitening by brushing of extracted bovine teeth with toothpaste slurry, colorimeter L value
Method: Tooth whitening was measured by the following process:
Whitening was determined using a modification to a system normally employed in the dental arts for determining the abrasivity of dentifrices.
Bovine jaws were obtained at a local abattoir and the teeth were extracted in their native state; no pre-cleaning was done. Teeth were mounted in a cap with dental acrylic so as to fit the format of a colorimeter and the brushing instrument: a detailed description is given below. An initial brushing was done with a slurry of Crest Regular toothpaste and an Oral B40, medium bristle, toothbrush. Then an initial L value was determined on a colorimeter (Hunter). This was designated as the initial whiteness value. The wear tester device was manufactured by Ramè-Hart, of Mountain Lakes, N.J. This machine has often been used to test the abrasivity of dental preparations. Tooth brushes were mounted and the teeth and brushes aligned. A 1:3 slurry of paste and water was poured into the trays and brushing commenced for a total of six hours. The slurry was replaced hourly. At 3 and 6 hours L value determinations were made. This was done by first rinsing the teeth with deionized water, then placing them in a closed container at 100% humidity for 1 hours, then taking a reading on the colorimeter to obtain a 3 hour and 6 hour L value.
Toothpaste slurries were tested for their whitening effect. […]

O=P(O)(O)OP(=O)(O)OP(=O)(O)O [STP, sodium tripolyphosphate]
tooth whitening as compared with the placebo base (10% or higher STP in Table I toothpaste base, 1:3 slurry of paste and water, brushing 6 hours, L value at 3 and 6 hours): superior tooth whitening
pH at which the best whitening results were obtained (STP toothpaste slurries, pH adjusted with 3M NaOH or 3M HCl): around 8.0
